In the test the target is MAPK14 (UniProt Q16539). Briefly: p38 Kinase Inhibition.

The structures appear in SMILES notation.

Sequence of MAPK14 (Q16539 whole entry, looked up): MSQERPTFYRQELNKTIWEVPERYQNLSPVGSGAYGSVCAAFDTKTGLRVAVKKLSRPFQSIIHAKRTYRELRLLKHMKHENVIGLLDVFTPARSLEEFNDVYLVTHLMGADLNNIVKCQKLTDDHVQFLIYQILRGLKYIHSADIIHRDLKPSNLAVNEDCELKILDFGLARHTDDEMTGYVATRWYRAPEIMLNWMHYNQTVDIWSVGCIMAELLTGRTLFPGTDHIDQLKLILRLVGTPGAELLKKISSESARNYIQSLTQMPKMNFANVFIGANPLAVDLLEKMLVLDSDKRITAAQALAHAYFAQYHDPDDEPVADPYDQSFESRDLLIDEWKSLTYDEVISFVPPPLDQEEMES

For `Fc1ccc(-c2ncn(C3CCCCC3)c2-c2ccnc(NCCCN3CCOCC3)n2)cc1`, the IC50 (usually the concentration at which inhibition is half-maximal) is less than 50 µM. `Fc1ccc(-c2ncn(C3CCCCC3)c2-c2ccnc(Nc3ccccc3)n2)cc1` gave an IC50 of less than 50 µM.

As to `Fc1ccc(Nc2nccc(-c3c(-c4ccc(F)cc4)ncn3-c3ccc(F)cc3)n2)cc1`, the IC50 was less than 50 µM. Consider `Fc1ccc(-c2ncn(C3CCCCC3)c2-c2ccnc(NCc3cccnc3)n2)cc1`, for which the IC50 was less than 50 µM. In the case of `CC(CCc1ccccc1)Nc1nccc(-c2c(-c3ccc(F)cc3)ncn2C2CCCCC2)n1` (stereo not given) it was less than 50 µM; in that of `Fc1ccc(-c2ncn(C3CCCCC3)c2-c2ccnc(NCCc3c[nH]cn3)n2)cc1`, less than 50 µM; in that of `CCOCC(=O)NCCn1cnc(-c2ccc(F)cc2)c1-c1ccnc(NCc2ccc(OC)cc2)n1`, less than 50 µM. `Fc1ccc(-c2ncn(C3CCCCC3)c2-c2ccnc(NCCC(c3ccccc3)c3ccccc3)n2)cc1` registered an IC50 of less than 50 µM. `Cc1cccc(C)c1Nc1nccc(-c2c(-c3ccc(F)cc3)ncn2C2CCNCC2)n1` showed an IC50 of less than 50 µM. In the case of `Fc1ccc(-c2ncn(-c3ccc(F)cc3)c2-c2ccnc(N3CCOC(Nc4ccccc4)C3)n2)cc1` (stereo not given) it was less than 50 µM; in that of `Cc1ccccc1Nc1nccc(-c2c(-c3ccc(F)cc3)ncn2C2CCNCC2)n1`, less than 50 µM; in that of `Cc1cc(F)ccc1Nc1nccc(-c2c(-c3ccc(F)cc3)ncn2C2CCN(C(=O)OC(C)(C)C)CC2)n1`, less than 50 µM. The figure for `COc1ccc(C(=O)NCCn2cnc(-c3ccc(F)cc3)c2-c2ccnc(NCc3ccc(Cl)c(Cl)c3)n2)cc1OC` is less than 50 µM; for `Cc1ccccc1Nc1nccc(-c2c(-c3ccc(F)cc3)ncn2-c2ccc(F)cc2)n1` it is less than 50 µM.

The molecule `Cc1ccc(F)cc1Nc1nccc(-c2c(-c3ccc(F)cc3)ncn2C2CCNCC2)n1` showed an IC50 of less than 50 µM.

The molecule `Fc1ccc(-c2ncn(-c3ccc(F)cc3)c2-c2ccnc(Nc3ccccc3)n2)cc1` gave an IC50 of less than 50 µM. For `CC(C)n1cnc(-c2ccc(F)cc2)c1-c1ccnc(Nc2ccccc2)n1`, the IC50 was less than 50 µM. The figure for `Fc1ccc(-c2ncn(C3CCCC3)c2-c2ccnc(Nc3ccccc3)n2)cc1` is less than 50 µM; for `O=C(Nc1cccc(C(F)(F)F)c1)N1CCC(n2cnc(-c3ccc(F)cc3)c2-c2ccnc(Nc3ccccc3C(F)(F)F)n2)CC1` it is less than 50 µM. Turning to `Cc1cccc(C)c1Nc1nccc(-c2c(-c3ccc(F)cc3)ncn2-c2ccc(F)cc2)n1`, the IC50 was less than 50 µM.

Source of the values: the Kinase Knowledgebase extract (Sharma et al. 2016).
